Values of other authors in US20120027718A1, “COMBINATION THERAPY WITH GLATIRAMER ACETATE AND RASAGILINE FOR THE TREATMENT OF MULTIPLE SCLEROSIS” (Teva Pharmaceutical Industries, Ltd., priority 2005, published 2012).

Assays:
[1] = test system: models of traumatic head injury; settings: in vivo
[2] = test system: stroke models; settings: in vivo
[3] = test system: multiple sclerosis (MS)

| Compound | efficacy in models of traumatic head injury [1] | efficacy in stroke models [2] | relapse rates, progression of disability, appearance of new lesions by MRI and appearance of black holes ([3]; daily subcutaneous injections, 20 mg/injection) | efficacy in treating multiple sclerosis ([3]; human, in vivo) |
| --- | --- | --- | --- | --- |
| C#CCN[C@@H]1CCc2ccccc21 [Rasagiline, R(+)-N-propargyl-1-aminoindan] | effective | effective | – | – |
| L-glutamic acid polymer with L-alanine, L-lysine and L-tyrosine, acetate (salt) [Glatiramer acetate] | – | – | reduce | effective |
